# Measurements taken from patent US11833181B1, “Method of treating or preventing Alzheimer's Disease” (KING FAISAL UNIVERSITY, priority 2023, dated 2023).
# “And” between values parts separate entries of the source, which are not always exact repeats. Equal entries are not always repeated. Marks after values point to notes of the source that are not given here.
# Columns and labels:
# Type in all cases: in vivo, rat
# [1] = tested on: aluminum chloride (AlCl3)-induced Alzheimer-like disease in rats; test: Catalase activity in brain homogenate of AlCl3-induced Alzheimer-like rats
# Description: (§1) The neuroprotective effects of silymarin (SM) were tested on the hippocampal tissues of aluminum chloride (AlCl3)-induced Alzheimer's-like disease in rats using biochemical, histological, and immune-histochemical examination. For this experiment, 42 mature male albino rats were divided equally into 6 groups each of 7 rats as follows: • Group I: Rats injected with distilled water and served as the control group (non-induced); • Group II: Rats injected with AlCl3; • Group III: Rats injected with AlCl3, then silymarin; • Group IV: Rats injected with AlCl3, then collagen; • Group V: Rats injected with AlCl3 then silymarin nanoparticles; • Group VI: Rats injected with AlCl3 then silymarin+collagen nanoparticles.
# (§2) All of the experimental animals were sacrificed, and their brains dissected to take out the cortex section. The homogenates (10%, w/v) were then centrifuged at 10,000 rpm for 15 min and the supernatants were conserved at […] for subsequent biochemical evaluations to determine, oxidative stress markers, catalase activity, superoxide dismutase, glutathione peroxidase, glutathione reductase; and lipid peroxidation.
# Catalase reacts with a known quantity of H2O2. The reaction is stopped after exactly one minute with a catalase inhibitor. In the presence of peroxidase (HRP), remaining H2O2 reacts with 3,5-Dichloro-2-hydroxybenzene sulfonic acid (DHBS) and 4-aminophenazone (AAP) to form a chromophore with a color intensity inversely proportional to the amount of catalase in the original sample.
# The reagents included: • buffer (Phosphate buffer, pH 7.0 Detergent)−100 mM/L; • H2O2 (substrate and standard) (Dilute 1000 times)−500 mM/L • Chromogen—Inhibitor— • Enzyme: Peroxidase 4-Aminoantipyrine Preservative->2000/L 2 mM/L.
# (§3) Male albino rats were pretreated with one dose of the nano-formulation of 200 mg/kg/day for 15 days orally. The animals were then evaluated for neurobehavioral, infarct analysis, biochemical, histopathological studies.
# [2] = tested on: aluminum chloride (AlCl3)-induced Alzheimer-like disease in rats; test: Reduced glutathione (GSH) level in brain homogenate of AlCl3-induced Alzheimer-like rats
# Description: as §1, §2
# To determine homogenate reduced glutathione (GSH) level, GSH was allowed to react with 5,5′-dithio-bis-2-nitrobenzoic acid (DTNB) (equation below), known as Ellman's reagent, generating a yellow-colored 2-nitro-5-thiobenzoic acid product. DTNB+2 GSH Glutathione reductase 2-nitro-5-thiobenzoic acid
# The reagents used included sulfosalicylic acid, 4%; phosphate buffer, 0.1 M, pH 7.4 and pH 8; DTNB, 10 mM, 19.8 mg in 10 ml phosphate buffer pH 8, and standard GSH, and 1 mg/dl (32.54 μM) in phosphate buffer pH 7.4.
# Proteins in 0.1 ml of either homogenate supernatants (samples) were precipitated using 0.1 ml of 4% sulfosalicylic acid. The samples were kept at 4° C. for at least 1 hour and then subjected to centrifugation at 3000 rpm for 10 min at 4° C. The assay mixture contained 0.1 ml supernatant, 2.7 ml phosphate buffer (0.1 M, pH 7.4), and 0.2 ml DTNB in a total volume of 3 ml.
# The standard and blank experiment was carried out as above using 0.1 ml of standard GSH and distilled water, respectively instead of samples. The absorbance of the developed yellow color of samples and standard was read against blank at 412 nm.
# The tissue contents of GSH were estimated using the following equation; GSH level (μmol/g protein)=[As Ast×Standard concentration×10]/total proteins, • where; • As: Absorbance of the sample (homogenate); • Ast: Absorbance of standard; and • 10: The tissue dilution.
# as §3
# [3] = tested on: aluminum chloride (AlCl3)-induced Alzheimer-like disease in rats; test: Lipid peroxidation (TBARS) in brain homogenate of AlCl3-induced Alzheimer-like rats
# Description: as §1, §2
# Lipid peroxidation was determined by measuring the thiobarbituric reactive substances (TBARS) in the homogenate where: Thiobarbituric acid+malondialdehyde Colored product+2 H2O Malondialdehyde (MDA), a major secondary product of lipid peroxidation (LPO) reacts with thiobarbituric acid (TBA), producing pink color adducts on heating. This reaction has been widely adopted as a sensitive method for lipid peroxidation that represents a major indicator of oxidative stress.
# In four test tubes, homogenate supernatant (test) or water (blank) was added to 1 ml TCA and mixed well, then the solutions were centrifuged at 3000 rpm for 10 min. One milliliter of the supernatant of each of the previous four test tubes was added to 0.5 ml of TBA and heated for 30 min at 90° C. then cooled. The absorbance of samples (As) was read at 532 nm against blank.
# The concentration of proteins was estimated. The levels of TBARS were calculated with the following equations:
# For tissue homogenate: As: TBARS level (μmol/g protein)=(0.156×total protein×1000)×10, where; • As: absorbance of the sample (homogenate); • 0.156: molar extinction coefficient (μM−1 cm^−1); and • 10: the sample dilution factor.
# as §3
# [4] = tested on: aluminum chloride (AlCl3)-induced Alzheimer-like disease in rats; test: Nitric oxide (nitrite) level in brain homogenate of AlCl3-induced Alzheimer-like rats
# Description: as §1, §2
# Nitric oxide was rapidly oxidized to nitrite (NO^2−) and/or nitrate (NO^3−) by oxygen. In this method, nitrite was first treated with a diazotizing reagent, e.g., sulfanilamide (SA), in acidic media to form a transient diazonium salt. This intermediate was then allowed to react with a coupling reagent, N-naphthyl-ethylene diamine, to form a stable azo compound. The intense purple color of the product allows nitrite assay with high sensitivity and can be used to measure nitrite concentration as low as […]. The absorbance of this adduct at 540 nm is linearly proportional to the nitrite concentration in the sample.
# The reagents included sulphanilamide (10 mM), N-(1-naphthyl) ethylenediamine, (1 mM), and standard sodium nitrite solution (100 μM). To four test tubes, each containing 1 ml sulphanilamide, 100 μl of either homogenate (test), standard solution (standard), or distilled water (blank) were added. The four test tubes were incubated for 5 minutes at room temperature. Then, 100 μl N-(1-naphthyl) ethylene diamine was added to all tubes and allowed to stand for 20 min at room temperature. The absorbance of the test and standard was read at 540 nm against blank.
# The homogenate NO level was calculated according to the following equation: NO level (μM/g protein)=[As Ast×Standard concentration×10]/total proteins, where; • As: Absorbance of the sample (homogenate); • Ast: Absorbance of standard; and • 10: The sample dilution factor.
# as §3
# [5] = Table 1, single animal samples (code = group G + animal H), brain homogenate supernatant
# [6] = Table 2, value ± spread per treatment group, Example 5, nano-formulation 200 mg/kg/day for 15 days orally
Compound,"Catalase [1, 5]","Catalase [1, 6]","GSH [2, 5]","GSH [2, 6]","TBARS [3, 5]","TBARS [3, 6]","NO [4, 5]","NO [4, 6]"
collagen,111 U/g and 52 U/g,62.33 ± 1.45^b,24.78 μmol/g protein and 11.61 μmol/g protein,14.44 ± 0.58^b,0.74 μmol/g protein and 0.60 μmol/g protein,0.71 ± 0.01^bc,37.22 μM/g protein and 36.11 μM/g protein,34.91 ± 0.83^bc
"[Cl][Al]([Cl])[Cl] [AlCl3, aluminum chloride]",54 U/g and 65 U/g,84.33 ± 17.27^bc,12.06 μmol/g protein and 14.51 μmol/g protein,19.03 ± 3.89^bc,1.54 μmol/g protein and 1.48 μmol/g protein,0.68 ± 0.04^bc,61.67 μM/g protein and 65.00 μM/g protein,36.18 ± 0.58^bc
